Results: patent US11851389B2, “Cationic lipids for nucleic acid delivery and preparation thereof” (RAMOT AT TEL-AVIV UNIVERSITY LTD., priority 2016, dated 2023)

Experiments:
[1] = tested on: Drug resistant human ovarian carcinoma cells (NAR); assay: PLK-1 expression by qPCR after LNP-siPLK-1 or LNP-siLuc; format: cell-based; conditions: 72 hrs
Method: (§1) The mRNA levels of pololike kinase 1 (PLK1 gene) in cells was quantified by real-time PCR, forty eight or Seventy-two hours post-transfection. Total RNA was isolated using the E-Z RNA purification kit (Biological industries, Beit Haemek, Israel), and 1 μg of RNA from each sample was reverse transcribed into cDNA using the High Capacity cDNA Reverse Transcription Kit (Applied Biosystems, Foster City, CA), Quantification of cDNA (5 ng total) was performed on the step one Sequence Detection System (Applied Biosystems, Foster City, CA) using syber green (Applied Biosystems). GAPDH was chosen as a housekeeping gene.
(§2) Supt1 or NAR or OVCAR cells were placed in tissue culture 12-wells plates at a density of 1×10^5 cells with 1 mL of full medium. LNPs containing different siRNAs (siPLK1 or siCD45 or siLUC) were added to the wells and the concentration was mentioned in figures. Cells were isolated at different time intervals mentioned in the figures and analyzed by either flow cytometry (for siCD45 knockdown), or qPCR for analysis of PLK1 silencing. Apoptosis assay using PI/Annexin was analyzed by flow cytometry in case of siPLK1 induced cell death.
Drug resistant human ovarian carcinoma cells (NAR) were treated with either LNP-siPLK-1 or LNP-siLuc nanoparticles Lipid 1 LNPs (A); Lipid 10&11 LNPs (B) for 72 hrs and PLK-1 expression was measured by qPCR as described in Example 1.

[2] = tested on: Human ovarian cancer cells (NAR cells); assay: Apoptosis by FACS using PI/Annexin after siPLK1-LNPs; format: cell-based; conditions: 48 hr; for Apoptosis induced by siPLK1-LNPs: PI/Annexin FACS
Method: as §2
Human ovarian cancer cells (NAR cells) were treated with lipid1/siPLK1 nanoparticles for 48 hr at different siRNA concentrations (0.2 μM and 0.1 μM). Apoptotic cells were analyzed by FACS using PI/Annexin. […] Percentage of early apoptotic cells was higher in cells treated with siPLK1-LNPs at 0.2 uM dose of siPLK1.
Human ovarian cancer cells (NAR cells) were treated with either lipid10 or lipid 11/siPLK1 nanoparticles for 48 hr at different siRNA concentrations (0.1 μM and 0.05 μM). siLUC-LNPs used as a negative control. Apoptotic cells were analyzed by FACS using PI/Annexin.

[3] = LNP size distribution, PDI and ζ potential by dynamic light scattering; format: physicochemical; conditions: LNP-siRNA formulations; for PDI / Size (d · nm): DLS
Method: LNPs were prepared by using microfluidic micro mixture (Precision NanoSystems, Vancouver, BC, Canada) as described by Cohen et. al. One volume of lipid mixtures (cationic lipid, DSPC, Chol, DMG-PEG and DSPE-PEG Mal at 50:10:38:1.5:0.5 mole ratio, […] total lipid concentration) in ethanol and three volumes of siRNA (1:16 w/w siRNA to lipid) containing acetate buffer solutions were injected through the micro mixer at a combined flow rate of 2 mL/minute (0.5 mL/min for ethanol and 1.5 mL/min for aqueous buffer). For labeled LNPs, 10% of Alexa-647 labeled siRNA were incorporated. For Cy5 labeled particles, 10% Cy5 labeled non-targeted siRNA was used. The resultant mixture was dialyzed against PBS (pH 7.4) for 16 h to remove ethanol.
LNPs size distribution and ζ potential were determined by dynamic light scattering using a Malvern nano ZS ζ-sizer (Malvern instruments, UK). For size measurements, LNPs were diluted 1:20 in PBS. […] For ζ potential measurements, LNPs were diluted 1:200 in DDW. In some cases, as indicated, size and zeta potential measurements were performed in water.

Human T cells SupT1 = assay: In vitro CD45 gene silencing by LNP-siCD45, flow cytometry; format: cell-based; conditions: LNP with siCD45, 48 hrs or 72 hrs, 0.4, 0.2, 0.1 μM siRNA
Method: as §2
FIG. 1 depicts in vitro gene silencing effect lipid 1: Human T cells SupT1 were treated with lipid nanoparticle (LNP) comprising of cationic lipid 1 encapsulated siCD45 for 48 hrs (A) or 72 hrs (B) at different siRNA doses (0.4 μM, 0.2 μM, 0.1 μM).

[4] = tested on: Spheroids of drug resistant human ovarian carcinoma cells (NAR); assay: PLK-1 expression by qPCR in 3D spheroids; format: cell-based; conditions: 72 hr
Method: as §1
Spheroids of drug resistant human ovarian carcinoma cells (NAR) were treated with LNPs composed of lipid1 and with either siPLK-1 or siLuc s for 72 hr and PLK-1 expression was measured by qPCR. Spheroids are 3D cultures of tumor cells mimicking in vivo tumors.

HEK 293 cells = assay: In vitro expression of mKATE-pDNA, flow cytometry; format: cell-based; conditions: 72 hr; for mKATE expression: HEK 293, 0.6 nM pDNA; for Dose dependence of mKATE expression: HEK 293, different amount pDNA
Method: In vitro expression of pDNA in HEK 293 cells: HEK cells were treated with LNPs composed of either lipid1 or lipid 10 encapsulated with mKATE-pDNA at the concentration of 0.6 nM pDNA. After 72 hr, mKATE expression was analyzed by flow cytometry.
Dose dependent expression of pDNA in HEK 293 cells: HEK cells were treated with LNPs composed of either lipid1 or lipid 10 encapsulated with mKATE-pDNA at different amount pDNA. After 72 hr, mKATE expression was analyzed by flow cytometry.

[5] = tested on: Human ovarian carcinoma cells (OVCAR 8); assay: PLK-1 expression by qPCR after LNP-siPLK1 or siLUC; format: cell-based; conditions: OVCAR 8, 72 hr
Method: as §1, §2
Human ovarian carcinoma cells (OVCAR 8) were treated with lipid 1 containing LNPs with either siPLK1 or siLUC for 72 hr and PLK-1 expression was measured by qPCR.

[6] = tested on: Human colon carcinoma cells (HCT116); assay: Toxicity of LNPs with ctl siRNA, XTT cell viability; format: cell-based; conditions: 72 hrs
Method: Human colon carcinoma cells (HCT116) were incubated with LNPs with ctl siRNA (see methods) for 72 hrs. The cell viability was measured by XTT assay. Toxicity of LNPs composed of either lipid 38 or lipid 55 is compared with gold standard LNPs composed of Dlin-MC3-DMA.

[7] = tested on: Human B-cell lymphoma suspension cells (RPMI-8226); assay: Cell viability after PLK1 silencing, XTT assay; format: cell-based; conditions: RPMI-8226, 48 hrs
Method: Human B-cell lymphoma suspension cells (RPMI-8226) were incubated with siPLK1-LNPs or siCtl-LNPs composed of either lipid 38 or 55 at different concentrations for 48 hrs. Cell viability affected by PLK1 down regulation was measured by XTT assay.

[8] = tested on: Human multiple myeloma suspension cells (MM1); assay: Cell viability after PLK1 silencing, XTT assay; format: cell-based; conditions: MM1, 48 hrs
Method: Human multiple myeloma suspension cells (MM1) were incubated with siPLK1-LNPs or siCtl-LNPs composed of either lipid 38 or 55 at different concentrations for 48 hrs. Cell viability affected by PLK1 down regulation was measured by XTT assay.

[9] = tested on: Human multiple myeloma suspension cells (U266); assay: PLK1 expression by qPCR after siPLK1-LNPs; format: cell-based; conditions: U266, 48 hrs, normalized to LNPs-ctl siRNA treated cells
Method: as §1
Human multiple myeloma suspension cells (U266) were incubated with LNPs containing siPLK1 at different concentrations for 48 hrs. PLK1 expression was measured by qPCR. PLK1-mRNA levels were normalized to LNPs-ctl siRNA treated cells.

[10] = tested on: Human multiple myeloma suspension cells (U266); assay: Cell viability after PLK1 silencing, XTT assay; format: cell-based; conditions: U266, 48 hrs
Method: Human multiple myeloma suspension cells (U266) were incubated with siPLK1-LNPs or siCtl-LNPs composed of either lipid 38 or 55 at different concentrations for 48 hrs. Cell viability affected by PLK1 down regulation was measured by XTT assay.

Zeta-potential (mV) [3] | PDI [3] | Size (d · nm) [3] | SMILES | further results
20.4 mV | 0.10 | 108.5 nm | CCCCC/C=C\C/C=C\CCCCCCCCN(CCCCCCCC/C=C\C/C=C\CCCCC)NC(=O)[C@@H](N)CCCCN(C)C [Lipid 11, 2-amino-6-(dimethylamino)-N′,N′-di((9Z,12Z)-octadeca-9,12-dien-1-yl)hexanehydrazide] | PLK-1 expression, LNP-siLuc control siRNA [1]: no effect on plk1 expression; PLK-1 expression, LNP-siPLK-1 [1]: down regulating plk1 gene efficiently at different doses; Apoptosis induced by siPLK1-LNPs [2]: efficiently downregulating PLK1 gene followed by inducing apoptosis in NAR cells
−13.6 mV | 0.04 | 75.1 nm | CCCCC/C=C\C/C=C\CCCCCCCCN(CCCCCCCC/C=C\C/C=C\CCCCC)OC(=O)CN(C)C [Lipid 9] | 
−10.8 mV | 0.15 | 46.0 nm | CCCCC/C=C\C/C=C\CCCCCCCCN(CCCCCCCC/C=C\C/C=C\CCCCC)OC(=O)Cc1c[nH]cn1 [Lipid 33] | 
18.5 mV | 0.14 | 45.1 nm | CCCCC/C=C\C/C=C\CCCCCCCCNN(CCCCCCCC/C=C\C/C=C\CCCCC)CCN(C)C [Lipid 1, 2-(1,2-di((9Z,12Z)-octadeca-9,12-dien-1-yl)hydrazinyl)-N,N-dimethylethan-1-amine] | PLK-1 expression, LNP-siLuc control siRNA [1]: did not affect plk1 expression; PLK-1 expression, LNP-siPLK-1 [1]: downregulating the proto-oncogene PLK1 efficiently; CD45 gene down-regulation (Human T cells SupT1): down-regulate CD45 gene in hard to transfect T cells; Percentage of early apoptotic cells ([2]; 0.2 uM dose of siPLK1): higher; Apoptosis induced by siPLK1-LNPs [2]: inducing apoptosis in cancer cell; Effect on cell cycle of siLUC-LNPs ([2]; control siRNA): no effect on cell cycle; PLK-1 expression, siPLK1-LNPs [4]: significantly downregulating PLK1 gene compared to siLUC-LNPs; mKATE expression (HEK 293 cells): mKATE expression was observed; Dose dependence of mKATE expression (HEK 293 cells): did not show any dose dependent expression; PLK-1 expression, siPLK1-LNPs [5]: efficiently downregulating PLK1 gene compared to dlin-mc3-dma containing LNPs
13.9 mV | 0.06 | 56.3 nm | CCCCC/C=C\C/C=C\CCCCCCCCNN(CCCCCCCC/C=C\C/C=C\CCCCC)CCCCN(C)C [Lipid 2] | 
18.5 mV | 0.08 | 50.5 nm | CCCCC/C=C\C/C=C\CCCCCCCCN(CCCCCCCC/C=C\C/C=C\CCCCC)NC(=O)CCCN(C)C [Lipid 10] | PLK-1 expression, LNP-siLuc control siRNA [1]: no effect on plk1 expression; PLK-1 expression, LNP-siPLK-1 [1]: down regulating plk1 gene efficiently at different doses; Apoptosis induced by siPLK1-LNPs [2]: efficiently downregulating PLK1 gene followed by inducing apoptosis in NAR cells; mKATE expression (HEK 293 cells): mKATE expression was observed; Dose dependence of mKATE expression (HEK 293 cells): dose dependent expression of mKATE
10.1 mV | 0.11 | 52.5 nm | CCCCC/C=C\C/C=C\CCCCCCCCN(CCCCCCCC/C=C\C/C=C\CCCCC)NCCN(C)C [Lipid 15] | 
−3.6 mV | 0.09 | 44.3 nm | CCCCC/C=C\C/C=C\CCCCCCCCN(CCCCCCCC/C=C\C/C=C\CCCCC)OC(=O)CCCN(C)C [Lipid 14] | 
−1.28 mV | 0.17 | 97.0 nm | CCCCC/C=C\C/C=C\CCCCCCCCN(CCCCCCCC/C=C\C/C=C\CCCCC)CCOC(=O)CCCN1CCN(C)CC1 [Lipid 55] | Toxicity of LNPs (cell viability) [6]: less toxic than LNPs composed of Dlin-MC3-DMA; Cell viability, siCtl-LNPs [7]: no effect on the cell viability; Cell viability, siPLK1-LNPs [7]: dose dependent effect on B-cell lymphoma cancer cell viability; Cell viability, siCtl-LNPs [8]: no effect on the cell viability; Cell viability, siPLK1-LNPs [8]: dose dependent effect on multiple myeloma cancer cell viability; PLK1 expression, siPLK1-LNPs [9]: efficiently down regulate; Cell viability, siCtl-LNPs [10]: no effect on the cell viability; Cell viability, siPLK1-LNPs [10]: more effect on cell viability compared to Dlin-MC3-DMA LNPs
−2.8 mV | 0.16 | 67.7 nm | CCCCC/C=C\C/C=C\CCCCCCCCN(CCCCCCCC/C=C\C/C=C\CCCCC)NC(=O)CCCN1CCN(C)CC1 [Lipid 21] | 
−1 mV | 0.18 | 44.5 nm | CCCCC/C=C\C/C=C\CCCCCCCCC(CCCCCCCC/C=C\C/C=C\CCCCC)OC(=O)CCCN(C)C [Dlin-MC3-DMA, reference compound] | mKATE expression (HEK 293 cells): did not show any effect on mKATE expression
